Entries after “also recorded” stand apart in the source; their conditions may differ. No end group written: not given here.

Four substances from US20230322854A1, “HUNTINGTIN-RELATED PEPTIDE AGENTS AND USES THEREOF” (UNIVERSITY OF SOUTHERN CALIFORNIA, priority 2020, published 2023) can be followed below.

One data set has as its target T1, Httex1Q72 aggregates (Homo sapiens, UniProt P42858, INS38QQQQQQQQQQQQQQQQQQQQQQQQQQQQQQQQQQQQQQQQQQQQQQQQQQQ).
T1 construct: Httex1Q72 (without RFP) was transfected into HEK293 cells; expressed in transfected cells
Nature of the data set: Labeling of Httex1Q72 aggregates in fixed transfected HEK293 cells. It is filed as cell-based. Conditions: fixed cells 24 h after transfection, 0.1 micromolar peptide overnight. The source says:
Left panels show fluorescent images (top left panel: nuclear stain to visualize all cells; middle left panel: fluorescein signal arising from the HD8-SP10-HD1-fluorescein peptide; bottom left panel: antibody against fluorescein to further amplify fluorescein signal). Right panels show phase contrast image of the same field. Arrows point to cytoplasmic aggregates that could be visualized with fluorescent signals or under phase contrast. Asterisks mark intranuclear aggregates that were labeled with HD8-SP10-HD1-fluorescein but not anti-fluorescein antibody.
Next, we tested the ability of HD peptides to bind Httex1 aggregates formed in cultured cells. To do this, Httex1Q72 (without RFP) was transfected into HEK293 cells. […] The antibody labeled the rim of the cytoplasmic aggregates and the signal also surrounded some cell nuclei. Little antibody staining was observed on intranuclear aggregates.

Data set [1] relates to Httex1 aggregates. The data set can be described thus: Labeling of Httex1 aggregates in retinal sections of Huntington mouse models. Conditions: 34-week-old R6/1 mice, 0.1 micromolar. An excerpt: FIG. 28 presents fluorescence microscopy pictures showing that HD8-Alexa488 labels aggregated Httex1 in retina sections from two different mouse model of Huntington disease. Left panels show nuclear stain that labels all cells. Right panels show signal from HD8-Alexa488. Top panels show a retinal section from a R6/1 mouse, and bottom panels show a retinal section from a zQ175KI mouse.
Left panels show nuclear stain that labels all cells (A1 and B1), and right panels show signal from HD8-SP10-HD1-fluorescein (A2 and B2). Top panels are higher magnification that show the ganglion cell layer of the retina, and the bottom panels are lower magnification micrographs that show all retinal layers. Labeling of all retinal layers is seen when the HD peptides are dimerized. The phase contrast panel to the left of the bottom panels show the corresponding retinal layers: ONL: outer nuclear layer that contain rod and cone photoreceptor cells, INL: inner nuclear layer that contains cell bodies from horizontal cells, bipolar cells, amacrine cells and Müller cells, GCL: ganglion cell layer.
To see whether HD peptides bind Httex1 aggregates formed in vivo, we used tissues from two different Huntington mouse models, R6/1 (34 weeks old) and zQ175KI (48 weeks). FIG. 28 show retinal sections from these mice incubated with 2 micromolar of HD8 conjugated with Alexa488 at its carboxyl terminus.
HD8-HD1-fluorescein (0.1 micromolar) was also used on retinal sections from 34-week-old R6/1 mice (FIG. 29). […] In addition, weaker signal from intranuclear aggregates was also observed. Further, the signal can now be detected in all layers of the retina where the nuclei reside.

Data set [2] deals with Httex1 aggregates. The data set can be described thus: Labeling of Httex1 aggregates in brain sections of R6/1 mice. The arrangement: species or system mouse. Conditions: R6/1 mice (34 weeks) versus age-matched control. An excerpt: Brain sections from age-matched littermate control and R6/1 mouse are shown in this figure.
HD8-HD1-fluorescein was also used on brain sections from R6/1 mice (34 weeks).

The test system of data set [3] is unbundled Huntingtin fibrils (exon 1). The data set can be described thus: Radioactive binding assay, immobilized unbundled Huntingtin fibrils. The note with it: for binding to Htt-fibrils: radiolabeled mRNA-peptide fusions, fibrils immobilized on beads. An excerpt:
Messenger RNA (mRNA) display (described in (Roberts, et al. (1997) Proc Natl Acad Sci USA 94: 12297-302, Takahashi, et al. (2003) Trends Biochem Sci 28: 159-65); FIG. 2) was used to engineer peptide agents that bind to unbundled fibrils of Huntingtin exon 1. To do this, unbundled Huntingtin fibrils were generated by mixing biotinylated Huntingtin protein (exon 1; FIG. 1) with non-biotinylated exon 1 Huntingtin protein at a ratio of 1:20 (˜5% biotinylated Huntingtin). These fibrils were then immobilized on Neutravidin agarose (Thermo Fisher) or Streptavidin ultralink beads (Thermo Fisher) via the attached biotin. A MX9 (where X is any of the 20 natural amino acids) mRNA display library was generated using published procedures (Takahashi, et al. (2009) Methods Mol Biol 535: 293-314) and incubated with immobilized fibrils. Non-binding sequences were washed away and the remaining fibril binding peptides were amplified via RT-PCR. This process was repeated seven times.
(§1) The binding of the peptide library was determined using a radioactive binding assay. In this assay, peptides were radiolabeled by translating the mRNA coding for these peptides in the presence of ^35S-methionine using rabbit reticulocyte lysate (Jackson, et al. (1983) Methods Enzymol 96: 50-74). These peptides were translated in an mRNA display format and were thus linked to their encoding mRNA, as described above. After purification by dT chromatography, the radiolabeled peptides were incubated with Huntingtin fibrils immobilized on Neutravidin Agarose or Streptavidin Ultralink beads. The beads were then filtered through a Spin X column (Corning) to separate the supernatant and beads, then washed to remove unbound sequences. The supernatant, washes, and beads were all counted in a scintillation counter to determine the counts in each sample. The percent bound was determined by dividing the counts on the beads with the total counts (beads+washes+supernatant).

The next data set has as its system monomeric Huntingtin. The data set can be described thus: Radioactive binding assay, monomeric Huntingtin. Conditions: radiolabeled peptide. The method, then: as §1
HD1 through HD4 were also tested for binding to monomeric Huntingtin (FIG. 5).
(§2) HD1 and HD8 were also tested for binding specificity. Radiolabeled HD1 and HD8 were incubated with monomeric Huntingtin, unbundled Htt-fibrils, or α-Synuclein fibrils (α-Synuclein is another protein known to aggregate and form fibrils).

The target of another data set is α-Synuclein fibrils (Homo sapiens, UniProt P37840). The data set can be described thus: Radioactive binding assay, α-Synuclein fibrils. The note with it: radiolabeled peptide. The method, then: as §1, §2
Data set [4] can be described thus: Radioactive binding assay, beads without target (no target control). The note with it: radiolabeled peptide. As to the method:
as §1

For data set [5], the system named is Htt-fibrils. The data set can be described thus: Competition binding of synthetic peptide against radiolabeled peptide on immobilized fibrils. Conditions: competitor = synthetic peptide in DMSO, 3.2 Fibril; for binding of radiolabeled HD8 to Htt-fibrils on addition of synthetic peptide: not to the same extent as with radiolabeled HD1. As to the method: Radiolabeled HD1 or HD8 were bound to immobilized fibrils and the appropriate compound was tested in a competition binding assay. From left to right and for each dataset shown on the graph (i.e., “HD1” and “HD8”), the bars represent “No Target+DMSO”, “No Target+HD1”, “No Target+HD8”, “3.2 Fibril+DMSO”, “3.2 Fibril+HD1”, and “3.2 Fibril+HD8”.
HD1 and HD8 were chemically synthesized and purified by reverse-phase HPLC and resuspended in DMSO. In order to verify that these synthetic peptides were functional for binding, we designed a competition experiment. We radiolabeled HD1 and HD8 above then tested to see if synthetic HD1 or HD8 would compete and reduce binding of the radiolabeled peptides. […] Binding to Htt-fibrils (3.2 Fibril+DMSO) was reduced by the addition of synthetic HD1 (3.2 Fibril+HD1) or by addition of synthetic HD8 (3.2 Fibril+HD8).

For a further data set, the system named is Huntingtin protein. Nature of the data set: In vitro Huntingtin aggregation assay imaged by electron microscopy. It is filed as biochemical. Conditions: synthetic peptide, 6 days. As to the method: Synthetic HD1 and HD8 were also tested for their ability to inhibit fibril formation in an in vitro Huntingtin aggregation assay. In this assay, Huntingtin protein aggregated over a period of 6 days, forming fibrils that could be imaged using electron microscopy (FIG. 8; Controls).

For data set [6], the system named is Htt-fibrils. Nature of the data set: EPR of spin-labeled peptide binding to Htt-fibrils. The note with it: spin-labeled synthetic peptide. As to the method:
FIG. 10 presents graphs showing testing binding of chemically synthesized HD1 or HD8 using Electron Paramagnetic Resonance (EPR). […] Panel B is a graph showing the results of experiments aimed at the determination of the stoichiometry of peptides binding to Httex1 molecules in the fibril, in which a spin-labeled peptide (HD1 or HD8) is added to 15 μM fibrils.
HD1 and HD8 binding was analyzed by electron paramagnetic resonance (EPR). The synthetic peptides were spin labeled using a free Cys at the C-terminus of the peptides. […] The stoichiometry of the complex was also studied using EPR, with varying amounts of peptide added to fibrils (FIG. 10, panel B).

The target in another data set is T2, Huntingtin Exon 1 Q39 (Homo sapiens, UniProt P42858, DUP21-38).
T2 construct: expressing Huntingtin Exon 1 Q39 (mutant Huntingtin with 39 CAG repeats) fused to red fluorescent protein (tagRFP); expressed in transfected cells; host or cells: N2A (mouse neuroblastoma cell line)
T2 sequence (P42858 with tags, fused parts or gaps DUP21-38): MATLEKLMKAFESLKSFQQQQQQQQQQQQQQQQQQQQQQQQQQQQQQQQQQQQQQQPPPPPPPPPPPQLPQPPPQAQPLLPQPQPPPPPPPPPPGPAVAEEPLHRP
Nature of the data set: Co-localization of Alexa 488-labeled peptide with Httex1 Q39-RFP in fixed N2A cells. The format is cell-based, mouse. The note with it: fixed N2A cells transfected with Httex1 Q39-RFP. As to the method:
In these experiments, N2A cells (mouse neuroblastoma cell line) were transfected with Httex1 Q39 fused with RFP (middle column). Cells were fixed and stained for HD 1 or HD 8 with Alexa 488 (left column). Co-localization of HD1/HD8 with Httex1 aggregates is shown in the merged image (co-localization observed in cells is indicated by white arrows). The “CTRL” rows show the non-transfected cells, which were treated with 5 times more peptide to confirm the localization was not due to aggregations of peptides or off-target binding occurring in the cell.
HD1 and HD8 were also tested to see if the synthetic peptide recognized Huntingtin fibrils from cells. In this assay, HD1 and HD8 are were labeled with the fluorescent dye, Alexa 488 and were incubated with fixed N2A cells (a mouse neuroblastoma cell line) that were expressing Huntingtin Exon 1 Q39 (mutant Huntingtin with 39 CAG repeats) fused to red fluorescent protein (tagRFP). In control experiments, with no Huntingtin exon 1 (Q39)-RFP fusion (Httex1 Q39) transfected, a diffuse signal is observed with HD1 and HD8 peptides (FIG. 11; Controls).

Data set [7] has as its target unbundled fibrils of Huntingtin exon 1 (about 5% biotinylated), immobilized on beads (UniProt P42858). The data set can be described thus: radioactive binding assay, fibrils immobilised on beads.
[8] abbreviates: listed as HD8-SP10-HD1-fluorescein.

T1 sequence (P42858 with tags, fused parts or gaps limits assumed, stated change not applied): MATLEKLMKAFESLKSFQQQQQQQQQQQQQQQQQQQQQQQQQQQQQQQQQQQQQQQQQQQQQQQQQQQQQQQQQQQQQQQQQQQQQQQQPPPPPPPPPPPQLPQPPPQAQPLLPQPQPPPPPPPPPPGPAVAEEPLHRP

Take “HD8-HD1-fluorescein: HD8-HD1 labeled with fluorescein at its carboxyl terminus (MWQMMNGMSQGSGTSGSSGSMDWWPMWPSL-fluorescein)”: the “labeling of Httex1Q72 aggregates” value with Httex1Q72 aggregates was “strong labeling of the round cytoplasmic Httex1Q72 aggregates (arrows) and intranuclear aggregates”; with Httex1Q72 aggregates (setting [8]) it was “bound Httex1Q72 aggregates”. Moreover, the “labeling of retinal sections” value is listed as “Robust signal from the peptide can be seen in the ganglion cell layer” with Httex1 aggregates [1] and “enhanced reactivity of Httex1 aggregates in all retinal layers” in the data set on Httex1 aggregates [1] (setting [8]). The “labeling of brain sections” value in the data set on Httex1 aggregates [2] was “abundant signal from R6/1 brain”; with Httex1 aggregates [2] (setting [8]), “labels Httex1 aggregates in brain section”.
Regarding MDWWPMWPSL [HD1], in data set [3], the “binding to Htt-fibrils” value is recorded as “demonstrated binding to Htt-fibrils; also recorded: bind to Htt-fibrils; also recorded: show binding to Htt-fibrils”. In addition, the “binding to Htt-fibrils in the presence of serum” value in data set [3] (serum diluted 1:2, 1:5 or 1:10 with buffer (TBST)) is on record as “serum partially inhibits the binding”. Further, the “binding to monomeric Huntingtin” value in the data set on monomeric Huntingtin is on record as “little to no binding”. For the same substance, in the data set with α-Synuclein fibrils, the “binding to α-Synuclein fibrils” value is on record as “little to no binding”. For the same substance, the “binding to beads without target” value in [4] is given as “little to no binding to beads without target; also recorded: little to no binding”. Besides, in the data set with Htt-fibrils [5], the “binding of radiolabeled HD1 to Htt-fibrils on addition of synthetic peptide” value was “reduced” and the “binding of radiolabeled HD8 to Htt-fibrils on addition of synthetic peptide” value is recorded as “similarly reduced”. Also, in the data set with Huntingtin protein, the “inhibition of fibril formation” value was “significant inhibition of fibril formation”. Also, in the data set with Htt-fibrils [6], the “EPR central line amplitude upon addition of Htt fibrils (peptide-fibril complex formation)” value is recorded as “decrease in central line amplitude”. Besides, the “colocalization of Alexa 488 signal and RFP signal” value in the data set with Huntingtin Exon 1 Q39 is listed as “significant colocalization”.
MWQMMNGMSQ [HD8]: the “binding to Htt-fibrils” value in data set [3] is reported as “good binding to Htt-fibrils; also recorded: bind to Htt-fibrils; also recorded: show binding to Htt-fibrils”. In addition, in the data set on monomeric Huntingtin, the “binding to monomeric Huntingtin” value is “little to no binding”. Further, in the data set with α-Synuclein fibrils, the “binding to α-Synuclein fibrils” value is “little to no binding”. Further, the “binding to beads without target” value in data set [4] is “little to no binding to beads without target; also recorded: little to no binding; also recorded: low binding to beads without target”. For the same substance, in the data set with Htt-fibrils [5], the “binding of radiolabeled HD1 to Htt-fibrils on addition of synthetic peptide” value is given as “reduced” and the “binding of radiolabeled HD8 to Htt-fibrils on addition of synthetic peptide” value is recorded as “similarly reduced”. Further, the “inhibition of fibril formation” value with Huntingtin protein is recorded as “significant inhibition of fibril formation”. The “EPR central line amplitude upon addition of Htt fibrils (peptide-fibril complex formation)” value with Htt-fibrils [6] is “decrease in central line amplitude”. For the same substance, the “colocalization of Alexa 488 signal and RFP signal” value with Huntingtin Exon 1 Q39 was “significant colocalization”.
Regarding QBP1 (peptide), the fold less binding as compared with HD1 and HD8 in data set [7] was found to be 10 fold.
